Test: logP determination by HPLC on a reversed-phase column (C 18), EEC Directive 79/831 Annex V.A8
Assay type: physicochemical
Experimental: The stated logP values were determined in accordance with EEC Directive 79/831 Annex V.A8 by HPLC (high performance liquid chromatography) on a reversed-phase column (C 18). Temperature: 43° C.

[1] = method marker [a] (footnote not shown), isomer A / isomer B / isomer mixture as noted in the cell
[2] = method marker [b], isomer A / isomer B / isomer mixture as noted in the cell

With `CCC(C)(CON=C(C)c1ccc(C)c(C)n1)CON=C(C)c1ccc(C)c(C)n1` (stereo not shown) [Compound 793] as the compound, how does the logP (value marked [b]) read?
The logP was 5.39^[b].

And the logP (value marked [c])?
Its logP is 7.27^[c].

Which logP [1] does the source give for `Cc1cccc(C(=NOCC(C)CON=C(c2cccc(C)n2)C2CC2)C2CC2)n1` (single isomer, unassigned) [Compound 164] here?
The logP was 3.51^]a] (isomer B).

For `CCC(=NOCC(C)(C)CON=C(CC)c1cc(C)cc(C)n1)c1cc(C)cc(C)n1` (mixture of isomers) [Compound 571], which logP (method marked [a] in Table 1) is on record?
The logP was 3.92^[a].

For `Cc1cccc(C(=NOCCON=C(c2cccc(C)n2)C(C)C)C(C)C)n1` (mixture of isomers) [compound 288], which logP (value marked [a]) is on record?
Its logP is 4.03^[a].

With `C=C(CON=C(C)c1cccc(C)n1)CON=C(C)c1cccc(C(C)C)n1` [compound 479] as the compound, how does the logP (value marked [b]) read?
Its logP is 5.78^[b].

Which logP [2] does the source give for `C=C(CON=C(C)c1ccc2ccccc2n1)CON=C(C)c1ccc2ccccc2n1` [compound 63] here?
The logP was 6.51^[b].

Which logP (value marked [b]) does the source give for `CC(=NOCCCCCCON=C(C)c1cccc(C)n1)c1ccncc1` [compound 454] here?
The logP was 2.62^[b].

For `C=C(CON=C(C)c1cccc(C)n1)CON=C(C)c1cccc(C)n1` [Compound 9], which logP [2] is on record?
Its logP is 3.33^[b].

With `C=C(CON=C(C)c1cccc(C)n1)CON=C(CC(C)C)c1ncccc1C` (mixture of isomers) [compound 154] as the compound, how does the logP [2] read?
Its logP is 5.08^[b].

Which results are given for `C/C(=N\OCC1(CON)CC1)c1cccc(C)n1` [XII-13]?
logP ([a] acidic range, pH 2.3, 0.1% aqueous phosphoric acid and acetonitrile): 0.78^[a]; logP ([b] LC-MS, acidic range, pH 2.7, 0.1% aqueous formic acid and acetonitrile): 0.78^[b]; logP ([c] LC-MS, neutral range, pH 7.8, 0.001 molar aqueous ammonium bicarbonate solution and acetonitrile): 2.11^[c]

Which logP (method marked [b] in Table 1) does the source give for `CC(=NOCC(C)CON=C(C)c1cccc(C(=O)c2ccccc2)n1)c1cccc(C)n1` (stereo not shown) [Compound 690] here?
Its logP is 5.75^[b].

For `C=C(CON=C(C)c1cc(Cl)cc(Cl)c1)CON=C(C)c1cccc(C)n1` [compound 24], which logP [2] is on record?
Its logP is 6.30^[b].

Which logP [2] does the source give for `CC(=NOCCCON=C(C)c1cc(C)ccn1)c1cc(C)ccn1` [compound 35] here?
The logP was 1.94^[b].

With `C/C(=N\OCCOCOCCO/N=C(\C)c1cccc(C)n1)c1cccc(C)n1` [Compound 216] as the compound, how does the logP [2] read?
The logP was 2.02^[b].

With `C=C(CON=C(C)c1nccc(OCC)n1)CON=C(C)c1nccc(OCC)n1` [compound 252] as the compound, how does the logP [2] read?
The logP was 3.42^[b].

With `CC(=NOCCCCON=C(c1ccccc1)c1cccc(C)n1)c1cccc(C)n1` [compound 332] as the compound, how does the logP (value marked [b]) read?
Its logP is 3.51^[b].

For `CC(=NOCC(CON=C(C)c1cccc(C)n1)C(C)(C)C)c1cccc(C)n1` (stereo not shown) [Compound 269], which logP (value marked [b]) is on record?
The logP was 5.51^[b].

For `CCC(CON=C(C)c1nc(C)ccc1C)CON=C(C)c1nc(C)ccc1C` (single isomer, unassigned) [compound 750], which logP (method marked [b] in Table 1) is on record?
The logP was 2.57^[b].

What about the logP (method marked [c] in Table 1) of the same compound?
The logP was 4.46^[c].

Which logP (value marked [b]) does the source give for `CC(=NOCCCCON=C(C)c1cccnc1C)c1cccc(C)n1` [compound 448] here?
Its logP is 1.69^[b].

Which logP (value marked [a]) does the source give for `C=CCOC(C)(CON=C(C)c1cccc(C)n1)C(C)ON=C(C)c1cccc(C)n1` (stereo not shown) [compound 872] here?
The logP was 6.13^[a].

What about the logP (value marked [b]) of the same compound?
Its logP is 6.13^[b].

And the logP (value marked [c])?
The logP was 6.96^[c].

With `CC(=NOc1ncnc(ON=C(C)c2cccc(C)n2)c1Cl)c1cccc(C)n1` [compound 729] as the compound, how does the logP (method marked [b] in Table 1) read?
Its logP is 3.31^[b].

Which logP [2] does the source give for `C=C(CON=C(C)c1nc(C)c(C)s1)CON=C(C)c1nc(C)c(C)s1` (single isomer, unassigned) [compound 69] here?
Its logP is 4.99^[b] (isomer A).

For `CCCC(CON=C(C)c1cccc(C)n1)CON=C(C)c1cccc(C)n1` (stereo not shown) [Compound 270], which logP (value marked [b]) is on record?
The logP was 5.14^[b].

For `Cc1nc(/C(N)=N/OCc2cccc(CO/N=C(\N)c3nc(C)c(Cl)c(C)n3)c2)nc(C)c1Cl` [compound 715], which logP (method marked [b] in Table 1) is on record?
Its logP is 3.29^[b].

With `CC(=NOCC(C)(C)CON=C(C)c1cccc(C)n1)c1cccc(C)n1` (mixture of isomers) [Compound 250] as the compound, how does the logP [2] read?
Its logP is 4.74^[b].

For `C=C(CON=C(C#CC)c1cccc(C)n1)CON=C(C#CC)c1cccc(C)n1` [compound 803], which logP (value marked [b]) is on record?
Its logP is 3.07^[b].

For `CC(=NOCCON=C(C)c1ccncc1)c1ccncc1` [compound 28], which logP [2] is on record?
The logP was 0.66^[b].

For `C=C(CON=C(C)c1cccc(C)n1)CON=C(CCC)c1ncccc1C` (single isomer, unassigned) [compound 535], which logP (method marked [b] in Table 1) is on record?
The logP was 4.46^[b] (isomer B).

For `CCc1ccnc(C(C)=NOCCCON=C(C)c2cc(CC)ccn2)c1` [Compound 136], which logP [1] is on record?
Its logP is 2.98^[a].

For `CCCc1cccc(C(C)=NOCC(C)(C)CON=C(C)c2cccc(C)n2)n1` [compound 489], which logP (value marked [b]) is on record?
Its logP is 6.36^[b].

Which logP (method marked [b] in Table 1) does the source give for `CCCC1=NOC(CON=C(C)c2ccc(C)c(C)n2)(CON=C(C)c2ccc(C)c(C)n2)C1` (stereo not shown) [compound 629] here?
Its logP is 3.11^[b].

Which logP (method marked [a] in Table 1) does the source give for `CC(=NOCC(C)CON=C(C)c1nc2ccccc2[nH]1)c1nc2ccccc2[nH]1` (mixture of isomers) [compound 584] here?
The logP was 2.05^[a].

With `CCOC(=O)C(C)(CON=C(C)c1nc(C)ccc1C)CON=C(C)c1nc(C)ccc1C` (stereo not shown) [compound 860] as the compound, how does the logP (value marked [b]) read?
The logP was 3.03[b].

And the logP (value marked [c])?
The logP was 4.72^[c].

What does the source list for `CC(=NOCC(C)CON=C(C)c1cccc(-c2ccccc2)n1)c1cccc(-c2ccccc2)n1` (stereo not shown) [compound 563]?
logP (method marked [b] in Table 1): 7.36^[b]; logP (method marked [c] in Table 1): 7.36^[c]

For `C=C(CON=C(C)c1cccc(C)n1)CON=C(N)c1ncc(C(F)(F)F)cc1Cl` [compound 245], which logP [2] is on record?
The logP was 3.50^[b].

With `C=C(CON=C(C#N)c1cc(C)cc(C)n1)CON=C(C#N)c1cc(C)cc(C)n1` [compound 830] as the compound, how does the logP (value marked [a]) read?
The logP was 4.50^[a].

For `C=C(CON=C(C)c1cccc(C)n1)CON=C(C)c1cccc(CCC)n1` [Compound 477], which logP (value marked [b]) is on record?
Its logP is 5.42^[b].

For `CC(=NOCCCON=C(C)c1ccc(C)c(C)n1)c1ccc(C)c(C)n1` [Compound 72], which logP [1] is on record?
The logP was 2.23^[a].

With `C=C(CON=C(SCCC)c1cccc(C)n1)CON=C(SCCC)c1cccc(C)n1` [compound 819] as the compound, how does the logP (value marked [a]) read?
Its logP is 4.9^[a].

Which logP [1] does the source give for `C=CCCC(=NOCCCON=C(CCC=C)c1ncccc1C)c1ncccc1C` [compound 129] here?
The logP was 4.59^[a].

Which logP [2] does the source give for `C=C(CO/N=C(\N)c1nc(C)c2c(n1)CCCC2)CO/N=C(\N)c1nc(C)c2c(n1)CCCC2` [compound 43] here?
Its logP is 2.67^[b].

What does the source list for `CC(=NOCC(C)CON=C(C)c1cc(Cl)cc(C)n1)c1cc(Cl)cc(C)n1` (stereo not shown) [compound 792]?
logP (value marked [a]): 7.36^[a]; logP (value marked [c]): 7.36^[c]

With `CC(=NOCC(C)(C)CON=C(C)c1cccc2ccccc12)c1cccc(C)n1` [compound 417] as the compound, how does the logP (value marked [b]) read?
Its logP is 5.90^[b].

With `C=C(CON=C(C)c1cccc(C)n1)CON=C(C)c1sc(C)nc1C` (single isomer, unassigned) [compound 544] as the compound, how does the logP (method marked [b] in Table 1) read?
The logP was 3.00^b] (Isomer A).

Which logP (value marked [b]) does the source give for `CCCC(=NOCCCCCCON=C(C)c1cccc(C)n1)c1cccc(C)n1` [compound 345] here?
Its logP is 6.16^[b].

For `CC(=NOCCCON=C(C)c1ccncc1)c1ccncc1` [compound 29], which logP [2] is on record?
The logP was 1.23^b].

For `COc1cc(C)nc(C(C)=NOCC(C)CON=C(C)c2cc(OC)cc(C)n2)c1` (stereo not shown) [Compound 806], which logP (value marked [a]) is on record?
The logP was 1.31^[a].

And the logP (value marked [c])?
Its logP is 5.25^[c].

For `CC(=NOCCCON=C(C)c1ncc(Cl)cc1Cl)c1ncc(Cl)cc1Cl` [compound 56], which logP [2] is on record?
Its logP is 5.78^[b].

Which logP (method marked [b] in Table 1) does the source give for `CC(=NOCC(CON=C(C)c1nc(C)ccc1C)C(C)C)c1nc(C)ccc1C` (single isomer, unassigned) [compound 752] here?
The logP was 2.89^[b].

What about the logP (method marked [c] in Table 1) of the same compound?
The logP was 4.85^[c].

Which logP [2] does the source give for `CC(=NOCCON=C(C)c1cc(C)ccn1)c1cc(C)ccn1` [compound 34] here?
The logP was 1.71^[b].

For `CC(=NOCCCCON=C(C)c1cccc(C)n1)c1ccc(Cl)cc1` [compound 444], which logP (value marked [b]) is on record?
Its logP is 5.54^[b].

With `CC(=NOCC(C)(C)CON=C(c1ccccc1)c1cccc(C)n1)c1cccc(C)n1` (single isomer, unassigned) [compound 879] as the compound, how does the logP (value marked [b]) read?
The logP was 4.61^[b].

And the logP (value marked [c])?
Its logP is 4.52^[c].
